# Key:
# Assay type in all cases: cell-based
# [1] = system: Malassezia furfur (ATCC 14521); assay: MIC of cycloceramide OX100 in liquid medium, 96-well plates (GLYcoDiag technology); conditions: 48 hours at 32.5° C., about 5.20-10^4 cfu/mL per well, strain ATCC 14521
# Procedure: (§1) The determination of the minimum inhibitory concentration of cycloceramide OX100 is carried out by a procedure adapted to liquid media in 96-well plates. The MIC study is conducted using GLYcoDiag technology, using the microbial strain Malassezia furfur (American Type Culture Collection (ATCC) reference 14521) as the organism. The cultures are reconstituted according to the instructions of the collection center supplying the reference strain.
# Preparation of samples and test microorganisms: OX100 cycloceramide is diluted in culture medium to the following concentrations: final concentrations in culture medium (expressed as percentages by volume): 0.25%; 0.125%; 0.0625%; 0.0312%; 0.01562%; 0.0078%.
# Analytical controls are prepared and used identically to the sample: • a control corresponding to the microbiological medium alone; • a control consisting of Phenoxyethanol® prepared at 5% (v/v) directly in the microbiological medium associated with each microbial strain.
# (§2) In order to determine the MIC of cycloceramide OX100, it is tested in serial dilutions of 6 dilutions directly in the culture medium intended to support the growth of the M. furfur strain (96-well microplates). Then, each dilution point is contaminated with the test strain in an amount of about 5.20-10^4 cfu/mL per well. Finally, the tests are incubated for 48 hours at 32.5° C. […]
# [2] = system: Malassezia furfur (CIP 1634.86); assay: MIC in solid medium by agar dilution method; conditions: CIP1634, strain CIP 1634.86
# Procedure: Protocol: the minimum inhibitory concentration (MIC) of a strain of Malassezia furfur (CIP 1634.86) against cycloceramide OX100 is determined in solid medium by agar dilution method according to COURVALIN P., GOLDSTEIN F., PHILIPPON A. and SIROT J.-Fiche technique 5—L'antibiogramme, édition MPC, 1985, p. 199.
# [3] = system: Malassezia furfur (ATCC 14521); assay: MIC of arabinogalactan and malic acid diester in liquid medium, 96-well plates (GLYcoDiag technology); conditions: 48 hours at 32.5° C., about 1.30-10^4 cfu/mL per well, strain ATCC 14521
# Procedure: as §1, with “The” for “The determination of the”, “concentration (MIC)” for “concentration”, “arabinogalactan and malic acid diester” for “cycloceramide OX100”, “using” for “by”
# Preparation of samples and test microorganisms: the products are diluted in culture medium at the concentrations defined in the table below.
# Analytical controls are prepared and used identically to the sample: • a control corresponding to the microbiological medium alone; and • a control consisting of Phenoxyethanol® prepared at 5% (v/v) directly in the microbiological medium associated with each microbial strain.
# as §2, with “the product,” for “cycloceramide OX100,”, “promote” for “support”, “1.30-10^4” for “5.20-10^4”, “C.±2.5° C., taking care to respect the respiratory type of the strain which is facultative aero-anaerobic.” for “C.”
Compound,MIC [1],MIC [2],MIC [3]
"CCCCCCCCCCCC1=NC(C)(C)CO1 [OX100, 2-undecyl-4,4-dimethyl-1,3-oxazoline]",0.031 % (v/v),64 µg/mL,
arabinogalactan,,,2.5 % (v/v)
di-C12-C13-alkyl malate [malic acid diester],,,1.25 % (v/v)
